Assays:
Assay type in all cases: in vivo
[1] = tested on: Amaranthus retoflexus (AMARE); assay: B1 Post-Emergence Efficacy - Test 1; conditions: 1000 g/ha, after 13 days, five point scale
Experimental: (§1) Seeds of a variety of test species are sown in standard soil in pots:— Solanum nigrum (SOLNI), Amaranthus retoflexus (AMARE), Setaria faberi (SETFA), Alopecurus myosuroides (ALOMY), Echinochloa crus-galli (ECHCG), Ipomoea hederacea (IPOHE), Lolium perenne (LOLPE). After 8 days cultivation (post-emergence) under controlled conditions in a glasshouse (at 24/16° C., day/night; 14 hours light; 65% humidity), the plants are sprayed with an aqueous spray solution derived from the formulation of the technical active ingredient in acetone/water (50:50) solution containing 0.5% Tween 20 (polyoxyethylene sorbitan monolaurate, CAS RN 9005-64-5). Compounds are applied at 1000 g/ha. The test plants are then grown in a glasshouse under controlled conditions in a glasshouse (at 24/16° C., day/night; 14 hours light; 65% humidity) and watered twice daily. After 13 days, the test is evaluated for the percentage damage caused to the plant. The biological activities are assessed on a five point scale (5=80-100%; 4=60-79%; 3=40-59%; 2=20-39%; 1=0-19%). A blank value in the table is indicative that the compound was not tested on that species.

[2] = tested on: Echinochloa crus-galli (ECHCG); assay: B1 Post-Emergence Efficacy - Test 1; conditions: 1000 g/ha, after 13 days, five point scale
Experimental: as §1

[3] = tested on: Ipomoea hederacea (IPOHE); assay: B1 Post-Emergence Efficacy - Test 1; conditions: 1000 g/ha, after 13 days, five point scale
Experimental: as §1

Lolium perenne (LOLPE) = assay: B1 Post-Emergence Efficacy - Test 1; conditions: 1000 g/ha, after 13 days, five point scale
Experimental: as §1

Setaria faberi (SETFA) [4] = assay: B1 Post-Emergence Efficacy - Test 1; conditions: 1000 g/ha, after 13 days, five point scale
Experimental: as §1

Solanum nigrum (SOLNI) = assay: B1 Post-Emergence Efficacy - Test 1; conditions: 1000 g/ha, after 13 days, five point scale
Experimental: as §1

[5] = tested on: Abutilon theophrasti (ABUTH); assay: B3 Herbicidal Efficacy of Compounds of Formula (II), post-emergence; conditions: 312 h, application post-emergence, after 13 days, 100=total damage, 0=no damage, read-out: percentage phytotoxicity to the plant, ABUTH
Experimental: (§2) Seeds of a variety of test species [Ipomoea hederacea (IPOHE); Zea mays (ZEAMX); Echinochloa crus-galli (ECHCG); Setaria faberi (SETFA); Abutilon theophrasti (ABUTH); Amaranthus retroflexus (AMARE)] were sown in standard sterilised soil in pots. After cultivation for one day (pre-emergence) or after 8 days cultivation (post-emergence) under controlled conditions in a glasshouse (at 24/16° C., day/night; 14 hours light; 65% humidity), the plants were sprayed with an aqueous spray solution derived from the formulation of the technical active ingredient in acetone/water (50:50) solution containing 0.5% Tween 20 (polyoxyethelyene sorbitan monolaurate, CAS RN 9005-64-5), subsequently diluted in water, and sprayed to give the stated application rate. The test plants were then grown under controlled conditions in a glasshouse (at 24/16° C., day/night; 14 hours light; 65% humidity) and watered twice daily. After 13 days for pre and post-emergence, the test was evaluated visually for percentage phytotoxicity to the plant (where 100=total damage to plant; 0=no damage to plant).

[6] = tested on: Amaranthus retroflexus (AMARE); assay: as above; conditions: 312 h, application post-emergence, after 13 days, 100=total damage, 0=no damage, read-out: percentage phytotoxicity to the plant, AMARE
Experimental: as §2

[7] = tested on: Echinochloa crus-galli (ECHCG); assay: as above; conditions: 312 h, application post-emergence, after 13 days, 100=total damage, 0=no damage, read-out: percentage phytotoxicity to the plant, ECHCG
Experimental: as §2

[8] = tested on: Ipomoea hederacea (IPOHE); assay: as above; conditions: 312 h, application post-emergence, after 13 days, 100=total damage, 0=no damage, read-out: percentage phytotoxicity to the plant, IPOHE
Experimental: as §2

Setaria faberi (SETFA) [9] = assay: as above; conditions: 312 h, application post-emergence, after 13 days, 100=total damage, 0=no damage, read-out: percentage phytotoxicity to the plant, SETFA
Experimental: as §2

Zea mays (ZEAMX) [10] = assay: as above; conditions: 312 h, application post-emergence, after 13 days, 100=total damage, 0=no damage, read-out: percentage phytotoxicity to the plant, ZEAMX
Experimental: as §2

[11] = tested on: Abutilon theophrasti (ABUTH); assay: B3 Herbicidal Efficacy of Compounds of Formula (II), pre-emergence; conditions: 312 h, application pre-emergence, after 13 days, 100=total damage, 0=no damage, read-out: percentage phytotoxicity to the plant, ABUTH
Experimental: as §2

[12] = tested on: Amaranthus retroflexus (AMARE); assay: as above; conditions: 312 h, application pre-emergence, after 13 days, 100=total damage, 0=no damage, read-out: percentage phytotoxicity to the plant, AMARE
Experimental: as §2

[13] = tested on: Echinochloa crus-galli (ECHCG); assay: as above; conditions: 312 h, application pre-emergence, after 13 days, 100=total damage, 0=no damage, read-out: percentage phytotoxicity to the plant, ECHCG
Experimental: as §2

[14] = tested on: Ipomoea hederacea (IPOHE); assay: as above; conditions: 312 h, application pre-emergence, after 13 days, 100=total damage, 0=no damage, read-out: percentage phytotoxicity to the plant, IPOHE
Experimental: as §2

Setaria faberi (SETFA) [15] = assay: as above; conditions: 312 h, application pre-emergence, after 13 days, 100=total damage, 0=no damage, read-out: percentage phytotoxicity to the plant, SETFA
Experimental: as §2

Zea mays (ZEAMX) [16] = assay: as above; conditions: 312 h, application pre-emergence, after 13 days, 100=total damage, 0=no damage, read-out: percentage phytotoxicity to the plant, ZEAMX
Experimental: as §2

SMILES | percentage damage caused to the plant, AMARE [1] | percentage damage caused to the plant, ECHCG [2] | percentage damage caused to the plant, IPOHE [3] | percentage damage caused to the plant, LOLPE (Lolium perenne (LOLPE)) | percentage damage caused to the plant, SETFA (Setaria faberi (SETFA) [4]) | percentage damage caused to the plant, SOLNI (Solanum nigrum (SOLNI)) | pest or weed control at 250 g/ha [5] [%] | pest or weed control at 250 g/ha [6] [%] | pest or weed control at 250 g/ha [7] [%] | pest or weed control at 250 g/ha [8] [%] | pest or weed control at 250 g/ha (Setaria faberi (SETFA) [9]) [%] | percent crop injury (phytotoxicity to maize) at 250 g/ha (Zea mays (ZEAMX) [10]) [%] | pest or weed control at 250 g/ha [11] [%] | pest or weed control at 250 g/ha [12] [%] | pest or weed control at 250 g/ha [13] [%] | pest or weed control at 250 g/ha [14] [%] | pest or weed control at 250 g/ha (Setaria faberi (SETFA) [15]) [%] | plant injury at 250 g/ha (Zea mays (ZEAMX) [16]) [%]
Cc1nn(C)c(=O)c(-c2c(F)ccc(Cl)c2CCc2ccc(C(F)(F)F)cc2)c1O [Compound 1.018, 4-[3-chloro-6-fluoro-2-[2-[4-(trifluoromethyl)phenyl]ethyl]phenyl]-5-hydroxy-2,6-dimethyl-pyridazin-3-one] | 5 (5=80-100%) | 5 (5=80-100%) | 5 (5=80-100%) | 5 (5=80-100%) | 5 (5=80-100%) | 5 (5=80-100%) | – | – | – | – | – | – | – | – | – | – | – | –
Cc1nn(C)c(=O)c(-c2c(F)ccc(Cl)c2CCc2cccnc2)c1O [Compound 1.054, 4-[3-chloro-6-fluoro-2-[2-(3-pyridyl)ethyl]phenyl]-5-hydroxy-2,6-dimethyl-pyridazin-3-one] | 5 (5=80-100%) | 5 (5=80-100%) | 5 (5=80-100%) | 5 (5=80-100%) | 5 (5=80-100%) | 5 (5=80-100%) | – | – | – | – | – | – | – | – | – | – | – | –
Cc1nn(C)c(=O)c(-c2c(F)ccc(Cl)c2/C=C/c2ccccc2)c1O [Compound 1.002, 4-[3-chloro-6-fluoro-2-[(E)-styryl]phenyl]-5-hydroxy-2,6-dimethyl-pyridazin-3-one] | 4 (4=60-79%) | 4 (4=60-79%) | 5 (5=80-100%) | 4 (4=60-79%) | 3 (3=40-59%) | 5 (5=80-100%) | – | – | – | – | – | – | – | – | – | – | – | –
CN1C[C@H](c2cc(C(F)(F)F)n(C)n2)[C@@H](C(=O)Nc2cccc(F)c2C(C)(F)F)C1=O [Compound 2.12, (3S,4R)-N-[2-(1,1-difluoroethyl)-3-fluoro-phenyl]-1-methyl-4-[1-methyl-5-(trifluoromethyl)pyrazol-3-yl]-2-oxo-pyrrolidine-3-carboxamide] | – | – | – | – | – | – | 0 | 0 | 90 | 50 | 90 | 80 | 0 | 0 | 90 | 70 | 90 | 90
Cc1ccc(CCc2c(Cl)ccc(F)c2-c2c(OC(=O)C(C)C)c(C)nn(C)c2=O)cc1 [Compound 1.149, [5-[3-chloro-6-fluoro-2-[2-(p-tolyl)ethyl]phenyl]-1,3-dimethyl-6-oxo-pyridazin-4-yl] 2-methylpropanoate] | 5 (5=80-100%) | 5 (5=80-100%) | 5 (5=80-100%) | 5 (5=80-100%) | 5 (5=80-100%) | 5 (5=80-100%) | – | – | – | – | – | – | – | – | – | – | – | –
Cc1nn(C)c(=O)c(-c2c(F)ccc(Cl)c2CCc2ccc(F)c(F)c2)c1O [Compound 1.060, 4-[3-chloro-2-[2-(3,4-difluorophenyl)ethyl]-6-fluoro-phenyl]-5-hydroxy-2,6-dimethyl-pyridazin-3-one] | 5 (5=80-100%) | 5 (5=80-100%) | 5 (5=80-100%) | 5 (5=80-100%) | 5 (5=80-100%) | 5 (5=80-100%) | – | – | – | – | – | – | – | – | – | – | – | –
Cc1nn(C)c(=O)c(-c2c(F)ccc(Cl)c2CCc2ccc(C(F)(F)F)cc2)c1OC(=O)C(C)C [Compound 1.095, [5-[3-chloro-6-fluoro-2-[2-[4-(trifluoromethyl)phenyl]ethyl]phenyl]-1,3-dimethyl-6-oxo-pyridazin-4-yl] 2-methylpropanoate] | 5 (5=80-100%) | 5 (5=80-100%) | 5 (5=80-100%) | 5 (5=80-100%) | – | 5 (5=80-100%) | – | – | – | – | – | – | – | – | – | – | – | –
Cc1nn(C)c(=O)c(-c2c(F)ccc(Cl)c2CCc2ccccc2)c1O [Compound 1.001, 4-(3-chloro-6-fluoro-2-phenethyl-phenyl)-5-hydroxy-2,6-dimethyl-pyridazin-3-one] | 5 (5=80-100%) | 5 (5=80-100%) | 5 (5=80-100%) | 5 (5=80-100%) | 5 (5=80-100%) | 5 (5=80-100%) | – | – | – | – | – | – | – | – | – | – | – | –
Cc1nn(C)c(=O)c(-c2c(F)ccc(Cl)c2CCc2ccc(Cl)cc2)c1O [Compound 1.012, 4-[3-chloro-2-[2-(4-chlorophenyl)ethyl]-6-fluoro-phenyl]-5-hydroxy-2,6-dimethyl-pyridazin-3-one] | 5 (5=80-100%) | 5 (5=80-100%) | 5 (5=80-100%) | 5 (5=80-100%) | 5 (5=80-100%) | 5 (5=80-100%) | – | – | – | – | – | – | – | – | – | – | – | –

From patent publication US20230301300A1, “HERBICIDAL COMPOSITIONS” (SYNGENTA CROP PROTECTION AG, priority 2020, published 2023)
